In brackets after ≈: the same amount, converted by molar mass.
How the values were obtained:
Relaxin receptor 1 [1] = molecular target: T1, Relaxin receptor 1 (Mus musculus, UniProt Q6R6I7); experiment: Agonist activity at mouse RXFP1 stably expressed in HEK293 cells assessed as intracellular cAMP accumulation incubated for 30 mins by HTRF assay; format: functional, cell-based
T1 sequence (Q6R6I7 whole entry): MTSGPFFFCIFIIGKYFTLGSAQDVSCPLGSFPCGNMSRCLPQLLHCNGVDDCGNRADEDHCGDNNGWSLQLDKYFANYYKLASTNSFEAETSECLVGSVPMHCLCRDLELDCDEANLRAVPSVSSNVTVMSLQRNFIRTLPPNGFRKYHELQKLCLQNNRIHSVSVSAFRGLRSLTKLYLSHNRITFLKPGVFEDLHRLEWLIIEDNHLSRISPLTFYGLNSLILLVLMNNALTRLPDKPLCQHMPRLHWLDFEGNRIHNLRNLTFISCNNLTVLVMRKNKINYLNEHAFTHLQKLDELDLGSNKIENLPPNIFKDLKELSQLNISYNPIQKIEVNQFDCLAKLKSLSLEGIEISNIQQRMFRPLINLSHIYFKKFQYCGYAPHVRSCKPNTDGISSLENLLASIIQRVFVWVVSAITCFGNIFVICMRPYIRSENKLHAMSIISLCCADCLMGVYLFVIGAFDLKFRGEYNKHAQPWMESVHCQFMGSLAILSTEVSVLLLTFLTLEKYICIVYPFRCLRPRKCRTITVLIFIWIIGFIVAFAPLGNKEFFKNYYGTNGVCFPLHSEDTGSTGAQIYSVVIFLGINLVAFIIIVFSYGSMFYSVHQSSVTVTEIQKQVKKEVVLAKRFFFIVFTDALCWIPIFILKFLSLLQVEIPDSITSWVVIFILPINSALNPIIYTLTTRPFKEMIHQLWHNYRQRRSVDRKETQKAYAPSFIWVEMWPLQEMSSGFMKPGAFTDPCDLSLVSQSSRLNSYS

[2] = Microsomal stability in human liver microsomes assessed as compound remaining measured after 30 mins; format: ADME, Microsome; conditions: read-out: Stability
[3] = Microsomal stability in rat liver microsomes assessed as compound remaining measured after 30 mins; format: ADME, Microsome; conditions: read-out: Stability
[4] = Microsomal stability in mouse liver microsomes assessed as compound remaining measured after 30 mins; format: ADME, Microsome; conditions: read-out: Stability
Relaxin receptor 1 [5] = molecular target: T2, Relaxin receptor 1 (Rattus norvegicus, UniProt Q6R6I6); experiment: Agonist activity at rat RXFP1 stably expressed in HEK293 cells assessed as intracellular cAMP accumulation incubated for 30 mins by HTRF assay; format: cell-based
T2 sequence (Q6R6I6 whole entry): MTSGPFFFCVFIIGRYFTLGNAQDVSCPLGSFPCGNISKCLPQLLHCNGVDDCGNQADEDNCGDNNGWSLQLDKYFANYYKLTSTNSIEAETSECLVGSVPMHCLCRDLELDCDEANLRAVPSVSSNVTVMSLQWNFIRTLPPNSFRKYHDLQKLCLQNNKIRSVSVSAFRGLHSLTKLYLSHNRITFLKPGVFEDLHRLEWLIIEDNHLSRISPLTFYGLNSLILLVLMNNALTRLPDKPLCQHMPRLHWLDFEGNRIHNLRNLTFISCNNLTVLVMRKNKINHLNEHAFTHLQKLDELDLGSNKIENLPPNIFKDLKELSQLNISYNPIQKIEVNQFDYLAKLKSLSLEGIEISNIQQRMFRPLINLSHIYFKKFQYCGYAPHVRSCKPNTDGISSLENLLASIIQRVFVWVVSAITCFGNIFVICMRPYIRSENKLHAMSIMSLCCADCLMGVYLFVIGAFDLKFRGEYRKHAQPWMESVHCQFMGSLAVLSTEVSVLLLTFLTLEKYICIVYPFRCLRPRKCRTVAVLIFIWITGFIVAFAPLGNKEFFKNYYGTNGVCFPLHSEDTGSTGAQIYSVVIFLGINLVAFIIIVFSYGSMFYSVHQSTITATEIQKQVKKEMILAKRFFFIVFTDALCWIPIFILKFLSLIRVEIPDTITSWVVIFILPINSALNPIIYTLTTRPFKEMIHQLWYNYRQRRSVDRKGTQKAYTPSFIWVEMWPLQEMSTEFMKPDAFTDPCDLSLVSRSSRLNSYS

Relaxin receptor 1 [6] = molecular target: T3, Relaxin receptor 1 (Homo sapiens, UniProt Q9HBX9); experiment: Agonist activity at human RXFP1 stably expressed in HEK293 cells assessed as intracellular cAMP accumulation incubated for 30 mins by HTRF assay
T3 sequence (Q9HBX9 whole entry): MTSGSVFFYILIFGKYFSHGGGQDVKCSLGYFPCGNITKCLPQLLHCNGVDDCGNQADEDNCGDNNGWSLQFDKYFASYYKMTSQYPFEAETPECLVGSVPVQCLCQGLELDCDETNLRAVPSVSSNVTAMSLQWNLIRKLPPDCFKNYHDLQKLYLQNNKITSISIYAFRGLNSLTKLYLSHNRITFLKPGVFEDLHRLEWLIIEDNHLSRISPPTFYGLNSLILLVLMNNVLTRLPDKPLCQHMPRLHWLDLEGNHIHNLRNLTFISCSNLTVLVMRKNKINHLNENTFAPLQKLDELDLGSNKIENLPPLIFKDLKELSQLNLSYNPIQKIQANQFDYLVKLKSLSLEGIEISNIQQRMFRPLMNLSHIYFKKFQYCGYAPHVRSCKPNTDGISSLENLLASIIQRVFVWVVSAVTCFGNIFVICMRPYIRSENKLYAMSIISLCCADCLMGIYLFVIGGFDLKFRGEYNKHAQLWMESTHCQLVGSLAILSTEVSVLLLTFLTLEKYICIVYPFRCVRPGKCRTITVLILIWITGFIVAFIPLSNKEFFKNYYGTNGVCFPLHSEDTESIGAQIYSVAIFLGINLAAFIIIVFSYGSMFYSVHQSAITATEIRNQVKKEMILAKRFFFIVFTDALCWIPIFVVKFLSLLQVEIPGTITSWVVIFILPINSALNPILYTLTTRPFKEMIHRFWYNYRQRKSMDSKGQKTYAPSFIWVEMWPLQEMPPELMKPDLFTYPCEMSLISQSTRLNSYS

Relaxin receptor 1 [7] = molecular target: T1, Relaxin receptor 1; experiment: Partial agonist activity at mouse RXFP1 expressed in HEK293 cells assessed as intracellular cAMP accumulation incubated for 30 mins by HTRF assay; format: functional, cell-based
[8] = Thermodynamic aqueous solubility of compound in phosphate buffer at pH 7.4 by reversed-phase ultrahigh pressure liquid chromatography; format: physicochemical; conditions: for solubility thermodynamic: phosphate buffer, read-out: Therm_solubility

Row | SMILES | EC50 (Relaxin receptor 1 [1]) | remaining at 0.5 h [2] | remaining at 0.5 h [3] | remaining at 0.5 h [4] | EC50 (Relaxin receptor 1 [6]) | other results
1 | COc1ccc(-c2cc(C(N)=O)ccc2F)cc1C(=O)N[C@H]1[C@@H](C(=O)Nc2ccc(F)c(C(F)(F)F)c2)[C@H]2CC[C@@H]1/C2=C\c1cnoc1 | 950 nM | > 90% | > 90% | > 90% | – | –
2 | COc1ccc(-c2cccnc2)cc1C(=O)N[C@H]1[C@@H](C(=O)Nc2ccc(F)c(C(F)(F)F)c2)[C@H]2CC[C@@H]1C2=C(C)C | > 10000 nM | – | – | – | – | –
3 | CNC(=O)OC(C(=O)O)c1ccc(F)c(-c2ccc(OC)c(C(=O)N[C@H]3[C@@H](C(=O)Nc4ccc(F)c(C(F)(F)F)c4)[C@H]4CC[C@@H]3/C4=C\c3cnoc3)c2)c1 (some centres undefined) | 110 nM | > 90% | > 90% | > 90% | 8 nM | EC50 (Relaxin receptor 1 [5]): 140 nM
4 | COc1ccc(-c2ccncc2)cc1C(=O)N[C@H]1[C@@H](C(=O)Nc2ccc(F)c(C(F)(F)F)c2)[C@H]2CC[C@@H]1C2=C(C)C | > 20000 nM | – | – | – | – | –
5 | COc1cc(F)c(F)cc1C(=O)N[C@H]1[C@@H](C(=O)Nc2ccc(F)c(C(F)(F)F)c2)[C@H]2CC[C@@H]1/C2=C\c1c(Cl)cccc1Cl | – | – | – | – | 3700 nM | –
6 | COc1ccc(-c2cc(C(=O)O)ccc2F)cc1C(=O)N[C@H]1[C@@H](C(=O)Nc2ccc(F)c(C(F)(F)F)c2)[C@H]2CC[C@@H]1/C2=C\c1ccccc1 | 1300 nM | > 90% | > 90% | > 90% | 16 nM | –
7 | COc1cc(F)c(F)cc1C(=O)N[C@H]1[C@@H](C(=O)Nc2ccc(F)c(C(F)(F)F)c2)[C@@H]2CC[C@@H]1C2C(C)C (single isomer, unassigned; isomer 2) | – | – | – | – | 14000 nM | –
8 | COc1ccc(-c2ccc(C(=O)O)cc2)cc1C(=O)N[C@H]1[C@@H](C(=O)Nc2ccc(F)c(C(F)(F)F)c2)[C@H]2CC[C@@H]1C2=C(C)C | 2300 nM | – | – | – | 380 nM | EC50 (Relaxin receptor 1 [7]): 2300 nM
9 | COc1ccc(-c2cc(CC(=O)O)ccc2F)cc1C(=O)N[C@H]1[C@@H](C(=O)Nc2ccc(F)c(C(F)(F)F)c2)[C@H]2CC[C@@H]1/C2=C\c1cnoc1 | 740 nM | > 90% | > 90% | > 90% | 11 nM | EC50 (Relaxin receptor 1 [5]): 1200 nM; solubility thermodynamic [8]: 130 µg/mL (≈ 191 µM)
10 | COc1ccc(-c2cc(C(=O)O)ccc2F)cc1C(=O)N[C@H]1[C@@H](C(=O)Nc2ccc(F)c(C(F)(F)F)c2)[C@H]2CC[C@@H]1C2=C(C)C | 940 nM | – | – | – | – | –
11 | COc1ccc(-c2cc(C(=O)O)ccc2F)cc1C(=O)N[C@H]1[C@@H](C(=O)NCc2ccccc2C(F)(F)F)[C@H]2CC[C@@H]1/C2=C\C1CC1 | 2200 nM | – | – | – | – | –
12 | COc1ccc(-c2cc(C(=O)O)ccc2F)cc1C(=O)N[C@H]1[C@@H](C(=O)Nc2ccc(F)c(C(F)(F)F)c2)[C@H]2CC[C@@H]1/C2=C\C1CC1 | 140 nM | > 90% | > 90% | > 90% | – | –
13 | COc1ccc(-c2cc(C(=O)NS(C)(=O)=O)ccc2F)cc1C(=O)N[C@H]1[C@@H](C(=O)Nc2ccc(F)c(C(F)(F)F)c2)[C@H]2CC[C@@H]1/C2=C\c1cnoc1 | 560 nM | > 90% | > 90% | > 90% | 22 nM | EC50 (Relaxin receptor 1 [5]): 890 nM; solubility thermodynamic [8]: < 1 µg/mL
14 | COc1ccc(-c2cccc(C(=O)O)c2)cc1C(=O)N[C@H]1[C@@H](C(=O)Nc2ccc(F)c(C(F)(F)F)c2)[C@H]2CC[C@@H]1C2=C(C)C | 6300 nM | – | – | – | – | –
15 | COc1ccc(-c2cc(C(O)C(=O)O)ccc2F)cc1C(=O)N[C@H]1[C@@H](C(=O)Nc2ccc(F)c(C(F)(F)F)c2)[C@H]2CC[C@@H]1/C2=C\c1cnoc1 (some centres undefined) | 1100 nM | > 90% | > 90% | > 90% | 13 nM | EC50 (Relaxin receptor 1 [5]): 1100 nM; solubility thermodynamic [8]: 60 µg/mL (≈ 86 µM)
16 | COc1cc(F)c(F)cc1C(=O)N[C@H]1[C@@H](C(=O)Nc2ccc(F)c(C(F)(F)F)c2)[C@H]2CC[C@@H]1/C2=C1/C=Cc2ccccc21 | – | – | – | – | 810 nM | –
17 | COc1ccc(-c2cc(O)ccc2F)cc1C(=O)N[C@H]1[C@@H](C(=O)Nc2ccc(F)c(C(F)(F)F)c2)[C@H]2CC[C@@H]1/C2=C\c1cnoc1 | 3000 nM | > 90% | > 90% | > 90% | – | –
18 | COc1ccc(-c2cc(C(=O)O)ccc2C)cc1C(=O)N[C@H]1[C@@H](C(=O)Nc2ccc(F)c(C(F)(F)F)c2)[C@H]2CC[C@@H]1C2=C(C)C | 1700 nM | – | – | – | – | –
19 | COc1ccc(-c2cc(C(=O)O)ccc2F)cc1C(=O)N[C@H]1[C@@H](C(=O)NC2CCCC2)[C@H]2CC[C@@H]1/C2=C\C1CC1 | 1300 nM | – | – | – | – | –
20 | COC(=O)c1ccc(F)c(-c2ccc(OC)c(C(=O)N[C@H]3[C@@H](C(=O)Nc4ccc(F)c(C(F)(F)F)c4)[C@H]4CC[C@@H]3C4=C(C)C)c2)c1 | > 10000 nM | – | – | – | – | –
21 | COc1ccc(-c2cncnc2)cc1C(=O)N[C@H]1[C@@H](C(=O)Nc2ccc(F)c(C(F)(F)F)c2)[C@H]2CC[C@@H]1C2=C(C)C | > 10000 nM | – | – | – | – | –
22 | COc1ccc(-c2ccccc2C(=O)O)cc1C(=O)N[C@H]1[C@@H](C(=O)Nc2ccc(F)c(C(F)(F)F)c2)[C@H]2CC[C@@H]1C2=C(C)C | > 20000 nM | – | – | – | – | –
23 | COc1cc(F)c(F)cc1C(=O)N[C@H]1[C@@H](C(=O)Nc2ccc(F)c(C(F)(F)F)c2)[C@@H]2CC[C@@H]1C2C(C)C (stereo in doubt) | – | – | – | – | 3500 nM | –
24 | COc1ccc(-c2cc(C(=O)O)ccc2OC)cc1C(=O)N[C@H]1[C@@H](C(=O)Nc2ccc(F)c(C(F)(F)F)c2)[C@H]2CC[C@@H]1C2=C(C)C | 4600 nM | – | – | – | – | –
25 | CNC(=O)OC(C(=O)O)c1ccc(F)c(-c2ccc(OC)c(C(=O)N[C@H]3[C@@H](C(=O)Nc4ccc(F)c(C(F)(F)F)c4)[C@H]4CC[C@@H]3/C4=C\C3CC3)c2)c1 (stereo in doubt; 40) | 390 nM | > 90% | > 90% | > 90% | 6 nM | EC50 (Relaxin receptor 1 [5]): 590 nM; Therm_solubility ([8]; buffer): 0.25 mg/mL
